The first assay addresses T1, human-mouse chimeric GPR119 (Homo sapiens, UniProt Q8TDV5, A235T/C313R/C323Y/E253K/F304I/F307L/G211A/G245S/H255C/K284R/L224V/L258Q/L288Q/L301F/P218V/P318T/Q252H/R262K/S214P/S219N/S228A/S309P/S322A/T217S/T239S/V227I/V300F).
T1 construct: the first 198 amino acids of human GPR119; the C-terminal 137 amino acids of the mouse receptor; expressed in transfected cells
T1 sequence (Q8TDV5 with tags, fused parts or gaps G211A/S214P/T217S/P218V/S219N/L224V/V227I/S228A/A235T/T239S/G245S/Q252H/E253K/H255C/L258Q/R262K/K284R/L288Q/V300F/L301F/F304I/F307L/S309P/C313R/P318T/S322A/C323Y): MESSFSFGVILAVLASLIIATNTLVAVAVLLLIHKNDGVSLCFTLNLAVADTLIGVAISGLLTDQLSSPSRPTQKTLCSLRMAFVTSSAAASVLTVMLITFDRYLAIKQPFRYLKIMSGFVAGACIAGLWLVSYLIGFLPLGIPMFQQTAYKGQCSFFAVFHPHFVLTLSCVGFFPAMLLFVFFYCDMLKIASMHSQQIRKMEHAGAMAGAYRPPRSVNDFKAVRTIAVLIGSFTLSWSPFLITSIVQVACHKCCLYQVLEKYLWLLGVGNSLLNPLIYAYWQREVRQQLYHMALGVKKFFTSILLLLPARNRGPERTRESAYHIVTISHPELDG
Description: Tet-inducible cAMP assay.
Settings: not given
The class given is cell-based. How it is done: The in vitro modulation of recombinant human GPR119 was determined as follows.
A human-mouse chimeric GPR119 expression construct encoding 3 copies of the FLAG epitope tag, the first 198 amino acids of human GPR119 and the C-terminal 137 amino acids of the mouse receptor was cloned into a tetracycline inducible vector pcDNA5/FRT/TO (Invitrogen #V6520-20), which includes a hygromycin-resistance marker. Tightly controlled receptor expression was achieved by stable integration of this construct into the genome of a specific host cell line, Flp-In-T-Rex-HEK293, expressing the tetracycline repressor (Invitrogen). Once a stable hygromycin-resistant cell line was generated, the cells were maintained at 37° C. in a humidified 5% CO2 atmosphere in culture medium consisting of Dulbecco's modified Eagle's medium (DMEM; Invitrogen #11960) supplemented with 2 mM L-glutamine, 10% fetal bovine serum, 200 μg/ml hygromycin B, and 15 μg/ml blasticidin.
Forty-eight hours prior to the cAMP accumulation assay, cells stably expressing the chimeric human/mouse GPR119 construct were seeded at a density of 4×10^3 cells/well in 384 well poly-D-lysine coated solid white plates (BD #35-6661) and grown at 37° C. in a humidified 5% CO2 atmosphere in culture medium supplemented with 1 μg/ml tetracycline to induce expression of the receptor. On the day of the assay, medium was removed and cells were incubated for 50 min. at 37° C. in a humidified 5% CO2 atmosphere in 20 μl/well of assay buffer (phosphate-buffered saline with Ca^2+ and Mg^2+, 12 mM glucose, 0.1 mM isobutyl-methyl-xanthine, 0.1% fatty-acid free bovine serum albumin) with the desired concentration of compound added from a concentrated stock dissolved in dimethyl sulfoxide (DMSO) to give a final concentration of 1% DMSO in the assay. cAMP accumulation was measured using the CisBio homogeneous time resolved fluorescence (HTRF) assay kit (#62AM2PEC) following the manufacturer's protocol. Briefly, 10 μl each of the cAMP-HTRF fluorescence detection reagents were added to each well, and the samples were incubated for 40 min. at room temperature. Fluorescence was excited at 320 nm and measured at 665 and 620 nm using the Envision instrument (Perkin Elmer), the fluorescence ratio of 665/620 was calculated and converted to nanomolar concentrations of cAMP in each well by interpolation from a cAMP standard curve. The concentration-response curves and EC50 values were calculated with a four parameter logistic curve fit equation utilizing Excel/XLfit software (Microsoft and IDBS). The EC50 value was calculated as the concentration of agonist which increased the cAMP concentration to a value halfway between the baseline and the maximum.
Compounds of the present invention were tested in the Tet-inducible cAMP assay described immediately above and the results shown in Table 2 below were obtained.
`CCCc1cnc(N2CCC(Oc3nc4ccc(C5=CCN(S(=O)(=O)CCCCCCP(=O)(OC)OC)CC5)cc4s3)CC2)nc1` [Example 177] had an EC50 of 9.7 nM.

The assay is the same for the next values; noted with them: cAMP accumulation (HTRF), Flp-In-T-Rex-HEK293 cells expressing chimeric human/mouse GPR119, 50 min incubation; read-out: GPR119 EC50.
Take `CCCc1cnc(N2CCN(c3nc4ccc(C5=CCN(S(=O)(=O)CC(C)C)CC5)cc4s3)CC2)nc1` [Example 133]: the EC50 was determined as 169 nM. As to `CCCc1cnc(N2CCC(Oc3nc4ccc(C5=CCN(S(=O)(=O)CCCC(=O)N(CC)CC)CC5)cc4s3)CC2)nc1` [Example 231], the EC50 was 2.3 nM.

For the compound `CCCc1cnc(N2C[C@@H]3[C@@H](COc4nc5ccc(-c6ccc(S(C)(=O)=O)cc6)cc5s4)[C@@H]3C2)nc1` [Example 266], the EC50 turned out to be 1080 nM. In the case of `CCCc1cnc(N2CCC(Cc3nc4ccc(C5=CCN(S(=O)(=O)CCC(C)(C)O)CC5)cc4o3)CC2)nc1` [Example 141], the concentration for a half-maximal effect (EC50) was found to be 9.5 nM. The same measure, in the same setting: for `CCCc1cnc(N2CCC(Nc3nc4ccc(C5=CCN(S(=O)(=O)CCC)CC5)cc4s3)CC2)nc1` [Example 53] the value was 283 nM; for `CCCc1cnc(N2CCC(Oc3nc4ccc(C5=CCN(S(=O)(=O)C[C@@H](C)CO)CC5)cc4s3)CC2)nc1` (single isomer, unassigned) [Example 19], 2.3 nM; for `Cc1cc(C)nc(N2CCC(Oc3nc4ccc(-c5ccc(S(C)(=O)=O)cc5)cc4s3)CC2)n1` [Example 296], 46.1 nM. The same measure, in the same setting: for `CC(C)(O)CCS(=O)(=O)N1CCC(c2ccc3nc(OC4CCN(c5ncc(Cl)cn5)CC4)sc3c2)CC1` [Example 246] the value was 3.9 nM. For `CN(C)S(=O)(=O)N1CC=C(c2ccc3nc(OC4CCN(c5ncc(F)cn5)CC4)sc3c2)CC1` [Example 49, 4-(2-((1-(5-Fluoropyrimidin-2-yl)piperidin-4-yl)oxy)benzo[d]thiazol-6-yl)-N,N-dimethyl-5,6-dihydropyridine-1(2H)-sulfonamide], the EC50 is 7.5 nM. On to `CCCS(=O)(=O)N1CC=C(c2ccc3nc(OC4CCN(C(=O)c5csnn5)CC4)sc3c2)CC1` [Example 109], for which the EC50 turned out to be 37 nM. Same read-out and setting: in the case of `CCCc1cnc(N2CCC(Oc3nc4ccc(C5=CCN(S(=O)(=O)CCC(C)(C)OC(=O)CCC(=O)O)CC5)cc4s3)CC2)nc1` [Example 39, 4-(2-methyl-4-(4-(2-(1-(5-Propylpyrimidin-2-yl)piperidin-4-yloxy)benzo[d]thiazol-6-yl)-5,6-dihydropyridin-1(2H)-ylsulfonyl)butan-2-yloxy)-4-oxobutanoic acid] it was 25 nM; in that of `CCCS(=O)(=O)N1CC=C(c2ccc3nc(OC4CCN(S(=O)(=O)C5CC5)CC4)sc3c2)CC1` [Example 22, 2-(1-(Cyclopropylsulfonyl)piperidin-4-yloxy)-6-(1-(propylsulfonyl)-1,2,3,6-tetrahydropyridin-4-yl)benzo[d]thiazole], 29.1 nM; in that of `CCCc1cnc(N2CC[C@@H](Oc3nc4ccc(C5=CCN(S(C)(=O)=O)CC5)cc4s3)C2)nc1` [Example 84], 953 nM. Same read-out and setting: in the case of `CC(C)c1noc(N2CCC(Oc3nc4ccc(C5=CCN(S(=O)(=O)CCC(C)(C)O)CC5)cc4s3)CC2)n1` [Example 44, 4-(4-(2-(1-(3-Isopropyl-1,2,4-oxadiazol-5-yl)piperidin-4-yloxy)benzo[d]thiazol-6-yl)-5,6-dihydropyridin-1(2H)-ylsulfonyl)-2-methylbutan-2-ol] it was 7.2 nM. On to `CCCc1cnc(N2CCC(Oc3nc4ccc(C5=CCN(C(=O)CC(C)C)CC5)cc4s3)CC2)nc1` [Example 63], for which the EC50 amounted to 292 nM.

For `CCCc1cnc(N2CCC(Nc3nc4ccc(C5=CCN(S(C)(=O)=O)CC5)cc4s3)CC2)nc1` [Example 54], the EC50 amounted to 450 nM. On to `CC(C)(O)CCS(=O)(=O)N1CC=C(c2ccc3nc(OC4CCN(S(=O)(=O)CC(F)(F)F)CC4)sc3c2)CC1` [Example 205], for which the EC50 turned out to be 169 nM.

For `CCCc1cnc(N2CCC(Oc3nc4ccc(C5=CCN(S(=O)(=O)CCN6CCCC6)CC5)cc4s3)CC2)nc1` [Example 134], the EC50 came to 55.6 nM. Same read-out and setting: for `CCCS(=O)(=O)N1CC=C(c2ccc3nc(OCC4[C@H]5CN(Cc6ccccc6)C[C@@H]45)sc3c2)CC1` (some centres unmarked) [Example 127] the value was 29 nM; for `CCCc1cnc(N2CCC(Oc3nc4ccc(C5=CCN(S(=O)(=O)CCN6CC(O)C6)CC5)cc4s3)CC2)nc1` [Example 7, 1-(2-(4-(2-(1-(5-Propylpyrimidin-2-yl)piperidin-4-yloxy)benzo[d]thiazol-6-yl)-5,6-dihydropyridin-1(2H)-ylsulfonyl)ethyl)azetidin-3-ol], 33.9 nM; for `CC(C)OC(=O)N1CCC(Oc2nc3ccc(C4=CCN(C(=O)OC(C)(C)C)CC4)cc3s2)CC1` [Example 301], 345 nM. Regarding `CCCc1cnc(N2CCC(Oc3nc4ccc(C5=CCN(c6ncc(C)s6)CC5)cc4s3)CC2)nc1` [Example 61], the EC50 is 547 nM. Same read-out and setting: for `CC(C)(O)CCS(=O)(=O)N1CCN(c2ccc3nc(OC4CCN(c5ncc(F)cn5)CC4)sc3c2)CC1` [Example 216] the value was 8.3 nM; for `CC(C)(O)CCS(=O)(=O)N1CC=C(c2ccc3nc(OC4CCN(c5nc6ccccc6s5)CC4)sc3c2)CC1` [Example 168], 3 nM; for `CCCNC(=O)N1CC=C(c2ccc3nc(OC4CCN(c5ncc(CCC)cn5)CC4)sc3c2)CC1` [Example 194], 378 nM. On the same count and under the same terms, for `CCCc1cnc(N2CCC(Oc3nc4ccc(C5=CCN(S(=O)(=O)CCC6(O)CC6)CC5)cc4s3)CC2)nc1` [Example 131] the value was 5 nM; for `CCCS(=O)(=O)N1CC=C(c2ccc3nc(OC4CCN(C(C)=O)CC4)sc3c2)CC1` [Example 92], 839 nM. `CCCc1cnc(N2CC[C@H](Oc3nc4ccc(C5=CCN(S(C)(=O)=O)CC5)cc4s3)C2)nc1` [Example 116]: the concentration giving a half-maximal response (EC50) was 22.1 nM. Same read-out and setting: in the case of `CCCc1cnc(N2CCC(Oc3nc4ccc(C5=CCN(S(=O)(=O)c6cccc(C(=O)O)c6)CC5)cc4s3)CC2)nc1` [Example 79] it was 713 nM. On the same count and under the same terms, for `CCCc1cnc(N2CCC(Cc3nc4ccc(N5CCN(S(=O)(=O)CCC(=O)OC)CC5)cc4o3)CC2)nc1` [Example 144] the value was 675 nM; for `CCCCOC(=O)N1CC=C(c2ccc3nc(OC4CCN(c5ncc(CCC)cn5)CC4)sc3c2)CC1` [Example 81], 142 nM; for `CCCc1cnc(N2CCC(Oc3nc4ccc(C5=CCN(c6nc(C)cs6)CC5)cc4s3)CC2)nc1` [Example 60], 767 nM. Still for that read-out and setting: in the case of `CCCc1cnc(N2CCC(Oc3nc4ccc(C5=CCN(S(=O)(=O)CCCC(C)(C)O)CC5)cc4s3)CC2)nc1` [Example 114] it was 4.4 nM. As to `CCCc1cnc(N2CCC(Oc3nc4ccc(C5=CCN(S(=O)(=O)CCCO)CC5)cc4s3)CC2)nc1` [Example 3, 3-(4-(2-(1-(5-Propylpyrimidin-2-yl)piperidin-4-yloxy)benzo[d]thiazol-6-yl)-5,6-dihydropyridin-1(2H)-ylsulfonyl)propan-1-ol], the EC50 is 11.1 nM. Same read-out and setting: for `CCCc1cnc(N2CCC(Oc3nc4ccc(C5=CCN(C(=O)c6csnn6)CC5)cc4s3)CC2)nc1` [Example 73] the value was 788 nM. On to `Cc1nnc(N2CCC(Oc3nc4ccc(-c5ccc(S(C)(=O)=O)cc5)cc4s3)CC2)s1` [Example 294], for which the EC50 came to 20.4 nM. Still for that read-out and setting: for `CCCc1cnc(N2CCC(Oc3nc4ccc(C5=CCN(S(=O)(=O)CCCCC[N+](CC)(CC)CC)CC5)cc4s3)CC2)nc1` [Example 32, N,N,N-triethyl-5-(4-(2-(1-(5-propylpyrimidin-2-yl)piperidin-4-yloxy)benzo[d]thiazol-6-yl)-5,6-dihydropyridin-1(2H)-ylsulfonyl)pentan-1-aminium bromide] the value was 9.7 nM.

Values taken from patent US8940716B2, “Bicyclic heteroaryl compounds as GPR119 modulators” (Bristol-Myers Squibb Company, priority 2010, dated 2015).
